Laboratory results published in patent US9718788B2, “Heteroaryl compounds useful as inhibitors of E1 activating enzymes” (MILLENNIUM PHARMACEUTICALS, INC., priority 2006, dated 2017).

Molecular target: T1, recombinant human NAE enzyme (Homo sapiens, UniProt Q8TBC4)
T1 construct: His (N); made in house; host or cells: Sf9 insect cells (baculovirus, Bac-to-Bac)
T1 sequence (Q8TBC4 1-463): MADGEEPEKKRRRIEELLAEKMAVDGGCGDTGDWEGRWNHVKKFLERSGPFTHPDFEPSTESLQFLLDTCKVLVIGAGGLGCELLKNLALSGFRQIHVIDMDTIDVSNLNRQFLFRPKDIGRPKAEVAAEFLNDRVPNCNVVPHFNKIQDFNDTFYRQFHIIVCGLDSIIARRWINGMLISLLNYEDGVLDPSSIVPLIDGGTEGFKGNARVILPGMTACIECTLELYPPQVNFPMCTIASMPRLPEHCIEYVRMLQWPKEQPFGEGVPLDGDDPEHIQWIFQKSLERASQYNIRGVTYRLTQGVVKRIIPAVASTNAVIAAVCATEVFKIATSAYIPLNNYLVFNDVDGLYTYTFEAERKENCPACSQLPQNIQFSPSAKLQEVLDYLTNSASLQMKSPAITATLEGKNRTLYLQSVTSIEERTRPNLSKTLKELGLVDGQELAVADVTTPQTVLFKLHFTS
T1 sequence (Q13564 1-534 partner): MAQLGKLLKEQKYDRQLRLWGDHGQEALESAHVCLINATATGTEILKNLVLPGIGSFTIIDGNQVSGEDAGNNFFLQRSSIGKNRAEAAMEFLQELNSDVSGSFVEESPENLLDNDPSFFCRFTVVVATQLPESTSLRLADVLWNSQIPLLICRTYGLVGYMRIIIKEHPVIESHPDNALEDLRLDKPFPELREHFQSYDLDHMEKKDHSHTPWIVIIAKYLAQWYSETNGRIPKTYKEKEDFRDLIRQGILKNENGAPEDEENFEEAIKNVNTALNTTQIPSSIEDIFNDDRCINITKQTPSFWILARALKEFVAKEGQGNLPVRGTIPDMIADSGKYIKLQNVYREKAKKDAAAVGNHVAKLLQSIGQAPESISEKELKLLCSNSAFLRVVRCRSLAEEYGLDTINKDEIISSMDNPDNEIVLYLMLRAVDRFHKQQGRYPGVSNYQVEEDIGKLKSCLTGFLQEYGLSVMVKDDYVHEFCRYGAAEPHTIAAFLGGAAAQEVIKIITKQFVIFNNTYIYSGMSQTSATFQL
Assay: Nedd8-Activating Enzyme (NAE) HTRF Assay
Format: biochemical
Conditions: 20 μM ATP
Summary of the method: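 Recombinant human NAE (NAEα/His-NAEβ from Sf9 cells) at 0.20 nM with 20 μM ATP, 0.01 μM Ubc12-GST and 0.075 μM Nedd8-Flag in HEPES pH 7.5, 105 min at 24° C. EDTA stop; Eu-anti-FLAG/APC-anti-GST HTRF read after 1 h.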

IC50 (bound given in nM) [nM]	IC50 (bound given in μM) [nM]	SMILES
> 500	< 10000	CN(C)C(=O)[C@H]1Cc2ccccc2[C@H]1Nc1cc(O[C@@H]2C[C@@H](COS(N)(=O)=O)[C@@H](O)C2)ncn1 [Compound I-66, ((1S,2S,4R)-4-{[6-({(1S,2S)-2-[(dimethylamino)carbonyl]-2,3-dihydro-1H-inden-1-yl}amino)pyrimidin-4-yl]oxy}-2-hydroxycyclopentyl)methyl sulfamate]
> 500	< 10000	COc1ccc2c(c1)[C@H](Nc1cc(O[C@@H]3C[C@@H](COS(N)(=O)=O)[C@@H](O)C3)ncn1)[C@H](OC)CC2 [Compound I-148, {(1S,2S,4R)-4-[(6-{[(1S,2R)-2,7-dimethoxy-1,2,3,4-tetrahydronaphthalen-1-yl]amino}-pyrimidin-4-yl)oxy]-2-hydroxycyclopentyl}methyl sulfamate]
≤ 500	–	CO[C@H]1Cc2ccccc2[C@H]1Nc1cc(N[C@@H]2C[C@H](COS(N)(=O)=O)[C@@H](O)[C@H]2O)ncn1 [Compound I-2, {(1R,2R,3S,4R)-2,3-dihydroxy-4-[(6-{[(1R,2S)-2-methoxy-2,3-dihydro-1H-inden-1-yl]-amino}pyrimidin-4-yl)amino]cyclopentyl}methyl sulfamate]
> 500	< 10000	NS(=O)(=O)OC[C@@H]1C[C@@H](Oc2ncnc3c2ncn3Cc2ccccc2)C[C@@H]1O [Compound I-80, {(1S,2S,4R)-4-[(9-benzyl-9H-purin-6-yl)oxy]-2-hydroxycyclopentyl}methyl sulfamate]
≤ 500	–	NS(=O)(=O)OC[C@@H]1C[C@@H](Oc2ncnc3[nH]c(-c4ccccc4)nc23)C[C@@H]1O [Compound I-63, {(1S,2S,4R)-2-hydroxy-4-[(8-phenyl-9H-purin-6-yl)oxy]cyclopentyl}methyl sulfamate]
> 500	< 10000	NS(=O)(=O)OC[C@@H]1C[C@@H](Nc2ncnc3[nH]c(-c4ccccc4-c4ccccc4)nc23)C[C@@H]1O [Compound I-48, {(1S,2S,4R)-4-[(8-biphenyl-2-yl-9H-purin-6-yl)amino]-2-hydroxycyclopentyl}-methyl sulfamate]
≤ 500	–	CN(C)c1ccccc1-c1nc2c(N[C@@H]3C[C@@H](COS(N)(=O)=O)[C@@H](O)C3)ncnc2[nH]1 [Compound I-137, [(1S,2S,4R)-4-({8-[2-(dimethylamino)phenyl]-9H-purin-6-yl}amino)-2-hydroxycyclopentyl]methyl sulfamate]
≤ 500	–	CC1CC(Nc2nccc(N[C@@H]3C[C@H](COS(N)(=O)=O)[C@@H](O)[C@H]3O)n2)c2ccccc21 (stereo partly drawn) [Compound I-10, [(1R,2R,3S,4R)-2,3-dihydroxy-4-({2-[(3-methyl-2,3-dihydro-1H-inden-1-yl)-amino]pyrimidin-4-yl}amino)cyclopentyl]methyl sulfamate]
> 500	< 10000	NS(=O)(=O)OC[C@@H]1C[C@@H](Oc2cc(OCc3ccc4ccccc4c3)ncn2)C[C@@H]1O [Compound I-141, ((1S,2S,4R)-2-hydroxy-4-{[6-(2-naphthylmethoxy)pyrimidin-4-yl]oxy}cyclopentyl)methyl sulfamate]
> 500	< 10000	CN(C)C[C@H]1Cc2ccccc2[C@H]1Nc1cc(O[C@@H]2C[C@@H](COS(N)(=O)=O)[C@@H](O)C2)ncn1 [Compound I-53, ((1S,2S,4R)-4-{[6-({(1S,2R)-2-[(dimethylamino)methyl]-2,3-dihydro-1H-inden-1-yl}amino)pyrimidin-4-yl]oxy}-2-hydroxycyclopentyl)methyl sulfamate]
≤ 500	–	NS(=O)(=O)OC[C@H]1C[C@@H](Nc2ncnc3[nH]c(-c4ccccc4)nc23)[C@H](O)[C@@H]1O [Compound I-9, {(1R,2R,3S,4R)-2,3-dihydroxy-4-[(8-phenyl-9H-purin-6-yl)amino]cyclopentyl}-methyl sulfamate]
> 500	< 10000	NS(=O)(=O)OC[C@H]1C[C@@H](Nc2cc(N[C@H]3CCC[C@@H]3OCc3ccccc3)ncn2)[C@H](O)[C@@H]1O [Compound I-92, {(1R,2R,3S,4R)-4-[(6-{[(1S,2S)-2-(benzyloxy)cyclopentyl]amino}pyrimidin-4-yl)amino]-2,3-dihydroxycyclopentyl}methyl sulfamate]
> 500	< 10000	Cn1c(-c2ccccc2)nc2ncnc(N[C@@H]3C[C@@H](COS(N)(=O)=O)[C@@H](O)C3)c21 [Compound I-36, {(1S,2S,4R)-2-hydroxy-4-[(7-methyl-8-phenyl-7H-purin-6-yl)-amino]cyclopentyl}methyl sulfamate]
≤ 500	–	CC1(C)C[C@H](Nc2ncnc(N[C@@H]3C[C@@H](COS(N)(=O)=O)[C@@H](O)C3)n2)c2ccccc21 [Compound I-134, {(1S,2S,4R)-4-[(4-{[(1S)-3,3-dimethyl-2,3-dihydro-1H-inden-1-yl]amino}-1,3,5-triazin-2-yl)amino]-2-hydroxycyclopentyl}methyl sulfamate]
≤ 500	–	NS(=O)(=O)OC[C@@H]1C[C@@H](Nc2ncnc3[nH]c(C4CCCc5ccccc54)nc23)C[C@@H]1O (stereo partly drawn) [Compound I-121, ((1S,2S,4R)-2-hydroxy-4-{[8-(1,2,3,4-tetrahydronaphthalen-1-yl)-9H-purin-6-yl]amino}cyclopentyl)methyl sulfamate]
≤ 500	–	CO[C@H]1CC(C)(C)c2ccccc2[C@H]1Nc1cc(O[C@@H]2C[C@@H](COS(N)(=O)=O)[C@@H](O)C2)ncn1 [Compound I-150, {(1S,2S,4R)-2-hydroxy-4-[(6-{[(1R,2S)-2-methoxy-4,4-dimethyl-1,2,3,4-tetrahydronaphthalen-1-yl]amino}pyrimidin-4-yl)oxy]cyclopentyl}methyl sulfamate]
–	> 10000	NS(=O)(=O)OC[C@H]1C[C@@H](Nc2ccnc(C(=O)N3CCc4ccccc43)c2)[C@H](O)[C@@H]1O [Compound I-145, ((1R,2R,3S,4R)-4-{[2-(2,3-dihydro-1H-indol-1-ylcarbonyl)pyridin-4-yl]amino}-2,3-dihydroxycyclopentyl)methyl sulfamate]
> 500	< 10000	NS(=O)(=O)OC[C@H]1C[C@@H](Nc2ccnc(NCc3ccccc3)n2)[C@H](O)[C@@H]1O [Compound I-7, ((1R,2R,3S,4R)-4-{[2-(benzylamino)pyrimidin-4-yl]amino}-2,3-dihydroxycyclopentyl)methyl sulfamate]
> 500	< 10000	NS(=O)(=O)OC[C@@H]1C[C@@H](Oc2cc(OCc3cccc4ccccc34)ncn2)C[C@@H]1O [Compound I-119, ((1S,2S,4R)-2-hydroxy-4-{[6-(1-naphthylmethoxy)pyrimidin-4-yl]oxy}cyclopentyl)methyl sulfamate]
≤ 500	–	CO[C@H]1Cc2ccccc2[C@H]1Nc1ncnc(N[C@@H]2C[C@@H](COS(N)(=O)=O)[C@@H](O)C2)n1 [Compound I-125, {(1S,2S,4R)-2-hydroxy-4-[(4-{[(1R,2S)-2-methoxy-2,3-dihydro-1H-inden-1-yl]amino}-1,3,5-triazin-2-yl)amino]cyclopentyl}methyl sulfamate]
≤ 500	–	Cc1cccc(Sc2nc3ncnc(O[C@@H]4C[C@@H](COS(N)(=O)=O)[C@@H](O)C4)c3[nH]2)c1 [Compound I-136, [(1S,2S,4R)-2-hydroxy-4-({8-[(3-methylphenyl)sulfanyl]-7H-purin-6-yl}oxy)cyclopentyl]methyl sulfamate]
≤ 500	–	Cn1c(-c2ccccc2)nc2c(N[C@@H]3C[C@@H](COS(N)(=O)=O)[C@@H](O)C3)ncnc21 [Compound I-130, {(1S,2S,4R)-2-hydroxy-4-[(9-methyl-8-phenyl-9H-purin-6-yl)amino]cyclopentyl}methyl sulfamate]
≤ 500	–	COc1cccc(-c2nc3c(N[C@@H]4C[C@@H](COS(N)(=O)=O)[C@@H](O)C4)ncnc3[nH]2)c1 [Compound I-99, ((1S,2S,4R)-2-hydroxy-4-{[8-(3-methoxyphenyl)-9H-purin-6-yl]amino}cyclopentyl)methyl sulfamate]
≤ 500	–	NS(=O)(=O)OC[C@@H]1C[C@@H](Nc2ncnc3[nH]c(-c4cccc5c4oc4ccccc45)nc23)C[C@@H]1O [Compound I-39, {(1S,2S,4R)-4-[(8-dibenzo[b,d]furan-4-yl-9H-purin-6-yl)amino]-2-hydroxycyclopentyl}methyl sulfamate]
≤ 500	–	NS(=O)(=O)OC[C@@H]1C[C@@H](Nc2ncnc3[nH]c(-c4cccc(Cl)c4)nc23)C[C@@H]1O [Compound I-60, ((1S,2S,4R)-4-{[8-(3-chlorophenyl)-9H-purin-6-yl]amino}-2-hydroxycyclopentyl)methyl sulfamate]
